In ChEMBL document CHEMBL2424570, “New synthetic approach to coumarino[4,3-b]pyridine systems and potential cytotoxic evaluation” (Med Chem Res, 2013):

Tests used:
[1] = tested on: Ehrlich; experiment: Ratio of 5-fluorouracil IC25 to compound IC25 for mouse EAC cells; format: functional
[2] = tested on: Ehrlich; experiment: Ratio of 5-fluorouracil IC50 to compound IC50 for mouse EAC cells; format: functional
[3] = tested on: Ehrlich; experiment: Ratio of 5-fluorouracil IC100 to compound IC100 for mouse EAC cells; format: functional
[4] = Antitumor activity against mouse EAC cells by trypan blue exclusion assay; format: functional, cell-based, Ehrlich; conditions: for IC25 / IC50: Mus musculus, Ehrlich

Row | Structure (SMILES) | Ratio [1] | Ratio IC50 [2] | Ratio [3] | IC100 [4] [µM] | IC25 [4] [nM] | IC50 [4] [nM]
1 | O=c1oc2ccccc2c2nc(/C=C/c3ccccc3)cc(-c3ccccc3)c12 | 3 | 3 | 3 | 0.27 | 60 | 130
2 | Nc1c(C(c2ccc(Cl)cc2)c2c(N)c3ccccc3oc2=O)c(=O)oc2ccccc12 | 3 | 3 | 3 | 0.25 | 60 | 120
3 | O=c1oc2ccccc2c2nc3c(c(-c4ccccc4)c12)CCC/C3=C\c1ccccc1 | 3 | 3 | 3 | 0.24 | 60 | 120
4 | O=C1c2ccccc2-c2nc3c(c(-c4ccccc4)c21)c(=O)oc1ccccc13 | 3 | 3 | 3 | 0.27 | 60 | 130
5 | O=c1oc2ccccc2c2nc(-c3ccccc3)cc(-c3ccc([N+](=O)[O-])cc3)c12 | 3 | 3 | 3 | 0.25 | 60 | 120
6 | O=c1[nH]cc(F)c(=O)[nH]1 [FLUOROURACIL] | – | – | – | 0.77 | 190 | 380
